In patent US20170319256A1, “METHOD OF SELECTIVELY KILLING CANCER CELLS USING LOW-TEMPERATURE PLASMA JET DEVICE AND METHOD OF TREATING TUMORS USING THE SAME” (Dong-A University Research Foundation for Industry-Academy …, priority 2016, published 2017):

What was measured:
[1] = tested on: A549 and SK-MEL2 cells; test: γH2AX phosphorylation immunofluorescence (marker for DNA breaks); type: cell-based, human; details: FIG. 4A
Protocol: (§1) Cells were treated using a previously reported plasma jet device. A typical operating condition of the pulsed-dc plasma jet has the applied voltage 1.6 kV, repetition frequency 50 kHz, and duty ratio 10%. The working gas (helium) and reactive gas (oxygen) flow rate were kept constant at 500 and 5 SCCM (SCCM denotes cubic centimeter per minute at standard temperature and pressure), respectively. The cells were cultured on 12-mm microscope cover glass coated with gelatin from porcine skin (Sigma-Aldrich) and were treated with helium generated-NTP with or without the flow of oxygen gas. The exposed cover glass was then transferred to 12-well plates containing fresh medium and incubated at 37° C. in a humidified incubator supplemented with 5% CO2. If necessary, the cells were treated with 5 or 10 μM of specific inhibitors targeting ATR (ETP46464), ATM (KU55933), DNA-PK (NU7026), or PARP1 (AZD2281) for 1 h before plasma treatment and kept until cell harvest. […]
(§2) For immunofluorescence staining, cells were fixed with 4% formaldehyde (Sigma-Aldrich) for 10 min at room temperature and permeabilized with 0.5% Triton™ X-100 (Bio Basic). […] The images were captured using a fluorescence microscope (Nikon) equipped with the NIS-Elements 4.0 Nikon imaging software. For quantification, a minimum of 500 cells were analyzed from each of three independent experiments.

[2] = tested on: A549 and SKMEL2 cells; test: CHK1 phosphorylation immunofluorescence after kinase inhibitor pretreatment and NTP or NTPO; type: cell-based, human; details: inhibitor pretreatment (5 or 10 μM, 1 h before plasma), followed by NTP or NTPO; FIG. 3A
Protocol: as §1, §2

Structure (SMILES)	γH2AX phosphorylation ([1]; PARP-1 inhibitor plus treatment of NTP or NTPO)	γH2AX phosphorylation ([1]; PARP-1 inhibitor, gas control)	CHK1 phosphorylation [2]
O=C(c1cc(Cc2n[nH]c(=O)c3ccccc23)ccc1F)N1CCN(C(=O)C2CC2)CC1 [AZD2281, olaparib]	significantly increased	measured even in the case of gas control	
CC(C)(C#N)c1ccc(N2C(=O)OCc3cnc4ccc(-c5cnc6ccccc6c5)cc4c32)cc1 [ETP 46464]			phosphorylation was not shown
